Assay results: US5294611A, “Angiotensin II receptor blocking 2,3,6 substituted quinazolinones” (American Cyanamid Company, priority 1993, dated 1994)
Where two headings read alike, the source gives them in different places.

Test system: Angiotensin II (AII) vasopressor response
Assay: AII Challenge: antagonism of angiotensin II vasopressor response in conscious spontaneously hypertensive rats
Format: in vivo, rat (male okamoto-Aoki SHR)
Conditions: for inhibition in vivo at 1 mg/kg / inhibition in vivo at 3 mg/kg / inhibition in vivo at 5 mg/kg: Rattus norvegicus; for inhibition in vivo at 1 mg/kg / inhibition in vivo at 3 mg/kg: iv; for inhibition in vivo at 3 mg/kg / inhibition in vivo at 5 mg/kg: read-out: Inhibition; for inhibition in vivo at 5 mg/kg: po; for Change: single SHR
Summary of the method: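 Read-out is the systolic pressure increase (mmHg) to i.v. angiotensin II, 0.05 and 0.1 ug/kg, compared pre- and post-dose in restrained, conscious spontaneously hypertensive male rats. Compounds administered orally, i.p. or i.v.; arterial cannula inserted under local anaesthesia.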

SMILES: CCCCc1nc2ccc([C@H]3[C@@H]4C(=O)CC[C@@H]4ON3C)cc2c(=O)n1Cc1ccc(-c2ccccc2-c2nnn[nH]2)cc1 (relative stereo) [Example 48]
- inhibition in vivo at 1 mg/kg (0.5 h, SHR n=2, 1 mg/kg I.V., AII 0.05 mcg/kg IV, 30 min post dose): 66%
- inhibition in vivo at 1 mg/kg (0.5 h, SHR n=2, 1 mg/kg I.V., AII 0.1 mcg/kg IV, 30 min post dose): 52%
- inhibition in vivo at 3 mg/kg (0.5 h, SHR n=2, 3 mg/kg I.V., AII 0.05 mcg/kg IV, 30 min post dose): 93%
- inhibition in vivo at 3 mg/kg (0.5 h, SHR n=2, 3 mg/kg I.V., AII 0.1 mcg/kg IV, 30 min post dose): 94%
- inhibition in vivo at 1 mg/kg (1 h, SHR n=2, 1 mg/kg I.V., AII 0.05 mcg/kg IV, 60 min post dose): 55%
- inhibition in vivo at 1 mg/kg (1 h, SHR n=2, 1 mg/kg I.V., AII 0.1 mcg/kg IV, 60 min post dose): 71%
- inhibition in vivo at 3 mg/kg (1 h, SHR n=2, 3 mg/kg I.V., AII 0.05 mcg/kg IV, 60 min post dose): 100%
- inhibition in vivo at 3 mg/kg (1 h, SHR n=2, 3 mg/kg I.V., AII 0.1 mcg/kg IV, 60 min post dose): 86%
- inhibition in vivo at 1 mg/kg (2 h, SHR n=2, 1 mg/kg I.V., AII 0.05 mcg/kg IV, 120 min post dose): 49%
- inhibition in vivo at 1 mg/kg (2 h, SHR n=2, 1 mg/kg I.V., AII 0.1 mcg/kg IV, 120 min post dose): 31%
- inhibition in vivo at 3 mg/kg (2 h, SHR n=2, 3 mg/kg I.V., AII 0.05 mcg/kg IV, 120 min post dose): 89%
- inhibition in vivo at 3 mg/kg (2 h): 82%
- inhibition in vivo at 1 mg/kg (3 h, SHR n=2, 1 mg/kg I.V., AII 0.05 mcg/kg IV, 180 min post dose): 38%
- inhibition in vivo at 1 mg/kg (3 h, SHR n=2, 1 mg/kg I.V., AII 0.1 mcg/kg IV, 180 min post dose): 38%
- inhibition in vivo at 3 mg/kg (3 h, SHR n=2, 3 mg/kg I.V., AII 0.05 mcg/kg IV, 180 min post dose): 60%
- inhibition in vivo at 3 mg/kg (3 h, SHR n=2, 3 mg/kg I.V., AII 0.1 mcg/kg IV, 180 min post dose): 47%
- inhibition in vivo at 1 mg/kg (4 h, SHR n=2, 1 mg/kg I.V., AII 0.05 mcg/kg IV, 240 min post dose): 26%
- inhibition in vivo at 1 mg/kg (4 h, SHR n=2, 1 mg/kg I.V., AII 0.1 mcg/kg IV, 240 min post dose): 32%
- inhibition in vivo at 3 mg/kg (4 h, SHR n=2, 3 mg/kg I.V., AII 0.05 mcg/kg IV, 240 min post dose): 60%
- inhibition in vivo at 3 mg/kg (4 h, SHR n=2, 3 mg/kg I.V., AII 0.1 mcg/kg IV, 240 min post dose): 47%
- inhibition in vivo at 1 mg/kg (5 h, SHR n=2, 1 mg/kg I.V., AII 0.05 mcg/kg IV, 300 min post dose): 18%
- inhibition in vivo at 1 mg/kg (5 h, SHR n=2, 1 mg/kg I.V., AII 0.1 mcg/kg IV, 300 min post dose): 30%
- inhibition in vivo at 3 mg/kg (5 h, SHR n=2, 3 mg/kg I.V., AII 0.05 mcg/kg IV, 300 min post dose): 47%
- inhibition in vivo at 3 mg/kg (5 h, SHR n=2, 3 mg/kg I.V., AII 0.1 mcg/kg IV, 300 min post dose): 35%
- inhibition in vivo at 1 mg/kg ([…], SHR n=2, 1 mg/kg I.V., AII 0.05 mcg/kg IV, 90 min post dose): 40%
- inhibition in vivo at 1 mg/kg ([…], SHR n=2, 1 mg/kg I.V., AII 0.1 mcg/kg IV, 90 min post dose): 52%
- inhibition in vivo at 3 mg/kg ([…], SHR n=2, 3 mg/kg I.V., AII 0.05 mcg/kg IV, 90 min post dose): 87%
- inhibition in vivo at 3 mg/kg ([…], SHR n=2, 3 mg/kg I.V., AII 0.1 mcg/kg IV, 90 min post dose): 76%
- inhibition in vivo at 5 mg/kg (0.5 h, SHR n=2, 5 mg/kg P.O., AII 0.05 mcg/kg IV, 30 min post dose): 76%
- inhibition in vivo at 5 mg/kg (0.5 h, SHR n=2, 5 mg/kg P.O., AII 0.1 mcg/kg IV, 30 min post dose): 66%
- inhibition in vivo at 5 mg/kg (1 h, SHR n=2, 5 mg/kg P.O., AII 0.05 mcg/kg IV, 60 min post dose): 76%
- inhibition in vivo at 5 mg/kg (1 h, SHR n=2, 5 mg/kg P.O., AII 0.1 mcg/kg IV, 60 min post dose): 74%
- inhibition in vivo at 5 mg/kg (2 h, SHR n=2, 5 mg/kg P.O., AII 0.05 mcg/kg IV, 120 min post dose): 90%
- inhibition in vivo at 5 mg/kg (2 h, SHR n=2, 5 mg/kg P.O., AII 0.1 mcg/kg IV, 120 min post dose): 89%
- inhibition in vivo at 5 mg/kg (3 h, SHR n=2, 5 mg/kg P.O., AII 0.1 mcg/kg IV, 180 min post dose): 74%
- inhibition in vivo at 5 mg/kg (3 h): 82%
- inhibition in vivo at 5 mg/kg (4 h, SHR n=2, 5 mg/kg P.O., AII 0.05 mcg/kg IV, 240 min post dose): 94%
- inhibition in vivo at 5 mg/kg (4 h, SHR n=2, 5 mg/kg P.O., AII 0.1 mcg/kg IV, 240 min post dose): 79%
- inhibition in vivo at 5 mg/kg (5 h, SHR n=2, 5 mg/kg P.O., AII 0.05 mcg/kg IV, 300 min post dose): 93%
- inhibition in vivo at 5 mg/kg (5 h, SHR n=2, 5 mg/kg P.O., AII 0.1 mcg/kg IV, 300 min post dose): 79%
- inhibition in vivo at 5 mg/kg ([…], SHR n=2, 5 mg/kg P.O., AII 0.05 mcg/kg IV, 90 min post dose): 79%
- inhibition in vivo at 5 mg/kg ([…], SHR n=2, 5 mg/kg P.O., AII 0.1 mcg/kg IV, 90 min post dose): 85%
- Average Change (SHR n=2, 1 mg/kg I.V., AII 0.05 mcg/kg IV, 30 min post dose): 15 mmHg
- Average Change (SHR n=2, 1 mg/kg I.V., AII 0.05 mcg/kg IV, 60 min post dose): 20 mmHg
- Average Change (SHR n=2, 1 mg/kg I.V., AII 0.05 mcg/kg IV, 90 min post dose): 26.5 mmHg
- Average Change (SHR n=2, 1 mg/kg I.V., AII 0.05 mcg/kg IV, 120 min post dose): 22.5 mmHg
- Average Change (SHR n=2, 1 mg/kg I.V., AII 0.05 mcg/kg IV, 180 min post dose): 27.5 mmHg
- Average Change (SHR n=2, 1 mg/kg I.V., AII 0.05 mcg/kg IV, 240 min post dose): 32.5 mmHg
- Average Change (SHR n=2, 1 mg/kg I.V., AII 0.05 mcg/kg IV, 300 min post dose): 36 mmHg
- Average Change (SHR n=2, 1 mg/kg I.V., AII 0.1 mcg/kg IV, 30 min post dose): 25 mmHg
- Average Change (SHR n=2, 1 mg/kg I.V., AII 0.1 mcg/kg IV, 60 min post dose): 15 mmHg
- Average Change (SHR n=2, 1 mg/kg I.V., AII 0.1 mcg/kg IV, 90 min post dose): 25 mmHg
- Average Change (SHR n=2, 1 mg/kg I.V., AII 0.1 mcg/kg IV, 120 min post dose): 36 mmHg
- Average Change (SHR n=2, 1 mg/kg I.V., AII 0.1 mcg/kg IV, 180 min post dose): 32.5 mmHg
- Average Change (SHR n=2, 1 mg/kg I.V., AII 0.1 mcg/kg IV, 240 min post dose): 35.5 mmHg
- Average Change (SHR n=2, 1 mg/kg I.V., AII 0.1 mcg/kg IV, 300 min post dose): 36.5 mmHg
- Average Change (SHR n=2, 3 mg/kg I.V., AII 0.05 mcg/kg IV, 30 min post dose): 2.5 mmHg
- Average Change (SHR n=2, 3 mg/kg I.V., AII 0.05 mcg/kg IV, 60 min post dose): 0 mmHg
- Average Change (SHR n=2, 3 mg/kg I.V., AII 0.05 mcg/kg IV, 90 min post dose): 5 mmHg
- Average Change (SHR n=2, 3 mg/kg I.V., AII 0.05 mcg/kg IV, 120 min post dose): 4 mmHg
- Average Change (SHR n=2, 3 mg/kg I.V., AII 0.05 mcg/kg IV, 180 min post dose): 15 mmHg
- Average Change (SHR n=2, 3 mg/kg I.V., AII 0.05 mcg/kg IV, 240 min post dose): 15 mmHg
- Average Change (SHR n=2, 3 mg/kg I.V., AII 0.05 mcg/kg IV, 300 min post dose): 20 mmHg
- Average Change (SHR n=2, 3 mg/kg I.V., AII 0.1 mcg/kg IV, 30 min post dose): 2.5 mmHg
- Average Change (SHR n=2, 3 mg/kg I.V., AII 0.1 mcg/kg IV, 60 min post dose): 6 mmHg
- Average Change (SHR n=2, 3 mg/kg I.V., AII 0.1 mcg/kg IV, 90 min post dose): 10 mmHg
- Average Change (SHR n=2, 3 mg/kg I.V., AII 0.1 mcg/kg IV, 120 min post dose): 7.5 mmHg
- Average Change (SHR n=2, 3 mg/kg I.V., AII 0.1 mcg/kg IV, 180 min post dose): 22.5 mmHg
- Average Change (SHR n=2, 3 mg/kg I.V., AII 0.1 mcg/kg IV, 240 min post dose): 22.5 mmHg
- Average Change (SHR n=2, 3 mg/kg I.V., AII 0.1 mcg/kg IV, 300 min post dose): 27.5 mmHg
- Average Change (SHR n=2, 5 mg/kg P.O., AII 0.05 mcg/kg IV, 30 min post dose): 10 mmHg
- Average Change (SHR n=2, 5 mg/kg P.O., AII 0.05 mcg/kg IV, 60 min post dose): 10 mmHg
- Average Change (SHR n=2, 5 mg/kg P.O., AII 0.05 mcg/kg IV, 90 min post dose): 8.5 mmHg
- Average Change (SHR n=2, 5 mg/kg P.O., AII 0.05 mcg/kg IV, 120 min post dose): 4 mmHg
- Average Change (SHR n=2, 5 mg/kg P.O., AII 0.05 mcg/kg IV, 180 min post dose): 7.5 mmHg
- Average Change (SHR n=2, 5 mg/kg P.O., AII 0.05 mcg/kg IV, 240 min post dose): 2.5 mmHg
- Average Change (SHR n=2, 5 mg/kg P.O., AII 0.05 mcg/kg IV, 300 min post dose): 3 mmHg
- Average Change (SHR n=2, 5 mg/kg P.O., AII 0.1 mcg/kg IV, 30 min post dose): 16 mmHg
- Average Change (SHR n=2, 5 mg/kg P.O., AII 0.1 mcg/kg IV, 60 min post dose): 12.5 mmHg
- Average Change (SHR n=2, 5 mg/kg P.O., AII 0.1 mcg/kg IV, 90 min post dose): 7 mmHg
- Average Change (SHR n=2, 5 mg/kg P.O., AII 0.1 mcg/kg IV, 120 min post dose): 5 mmHg
- Average Change (SHR n=2, 5 mg/kg P.O., AII 0.1 mcg/kg IV, 180 min post dose): 12.5 mmHg
- Average Change (SHR n=2, 5 mg/kg P.O., AII 0.1 mcg/kg IV, 240 min post dose): 10 mmHg
- Average Change (SHR n=2, 5 mg/kg P.O., AII 0.1 mcg/kg IV, 300 min post dose): 10 mmHg
- Change (1 mg/kg I.V., AII 0.05 mcg/kg IV, 30 min post dose): 15 mmHg
- Change (1 mg/kg I.V., AII 0.05 mcg/kg IV, 60 min post dose): 20 mmHg
- Change (1 mg/kg I.V., AII 0.1 mcg/kg IV, 30 min post dose): 25 mmHg
- Change (1 mg/kg I.V., AII 0.1 mcg/kg IV, 60 min post dose): 15 mmHg
- Change (3 mg/kg I.V., AII 0.05 mcg/kg IV, 60 min post dose): 0 mmHg
- Change (3 mg/kg I.V., AII 0.05 mcg/kg IV, 90 min post dose): 5 mmHg
- Change (3 mg/kg I.V., AII 0.05 mcg/kg IV, 180 min post dose): 15 mmHg
- Change (3 mg/kg I.V., AII 0.05 mcg/kg IV, 240 min post dose): 15 mmHg
- Change (5 mg/kg P.O., AII 0.1 mcg/kg IV, 240 min post dose): 10 mmHg
- Change (5 mg/kg P.O., AII 0.1 mcg/kg IV, 300 min post dose): 10 mmHg
